Experimental data as given in article PMC4979471 (Cell Death Discovery, 2015).
Where two headings read alike, the source gives them in different places.

What was measured:
Experiment in all cases: Kinase selectivity, P33-radiolabeled assay
Type in all cases: biochemical
Details in all cases: 10 μM ATP
CK1g3 = target: T1, CK1g3 (Homo sapiens, UniProt Q9Y6M4)
T1 construct: purchased Reaction Biology Corp
Procedure, shortened: (§1)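 Reactions contained 10 μM ATP and 10 μM test compound, each run in duplicate. Kinase activity is expressed as a percentage of DMSO-treated controls.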

EPHB2 = target: T2, EPHB2 (Homo sapiens, UniProt P29323)
T2 construct: purchased Reaction Biology Corp
T2 sequence (P29323 19-1055): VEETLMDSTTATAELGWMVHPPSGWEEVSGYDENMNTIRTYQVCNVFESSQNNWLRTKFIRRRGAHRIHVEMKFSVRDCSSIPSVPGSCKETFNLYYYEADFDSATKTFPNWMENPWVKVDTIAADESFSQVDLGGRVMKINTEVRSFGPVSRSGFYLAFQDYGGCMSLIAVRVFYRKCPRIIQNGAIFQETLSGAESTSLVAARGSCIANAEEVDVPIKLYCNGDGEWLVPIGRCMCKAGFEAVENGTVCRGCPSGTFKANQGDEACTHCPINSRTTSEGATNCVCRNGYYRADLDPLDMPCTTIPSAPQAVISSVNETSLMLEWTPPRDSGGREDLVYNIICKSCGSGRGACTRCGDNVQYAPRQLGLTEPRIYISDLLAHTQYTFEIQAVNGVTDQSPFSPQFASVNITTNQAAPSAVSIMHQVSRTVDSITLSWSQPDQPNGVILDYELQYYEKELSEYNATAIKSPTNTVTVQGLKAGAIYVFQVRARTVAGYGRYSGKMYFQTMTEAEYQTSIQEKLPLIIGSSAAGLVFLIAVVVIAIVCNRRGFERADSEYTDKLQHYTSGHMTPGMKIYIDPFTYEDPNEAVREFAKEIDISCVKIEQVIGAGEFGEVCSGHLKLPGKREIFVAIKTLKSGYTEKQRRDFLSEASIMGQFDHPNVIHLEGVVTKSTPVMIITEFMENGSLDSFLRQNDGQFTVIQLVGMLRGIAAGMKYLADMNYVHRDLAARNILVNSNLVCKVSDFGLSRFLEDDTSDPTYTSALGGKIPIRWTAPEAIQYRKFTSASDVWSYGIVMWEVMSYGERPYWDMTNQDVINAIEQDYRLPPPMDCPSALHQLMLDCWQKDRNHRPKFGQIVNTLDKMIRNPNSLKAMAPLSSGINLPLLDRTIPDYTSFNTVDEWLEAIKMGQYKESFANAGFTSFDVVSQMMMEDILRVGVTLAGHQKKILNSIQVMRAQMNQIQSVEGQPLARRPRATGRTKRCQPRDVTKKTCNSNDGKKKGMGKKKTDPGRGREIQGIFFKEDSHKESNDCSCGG
Procedure, shortened: as §1

ERK7/MAPK15 = target: T3, ERK7/MAPK15 (Homo sapiens, UniProt Q8TD08)
T3 construct: purchased Reaction Biology Corp
T3 sequence (Q8TD08 1-544): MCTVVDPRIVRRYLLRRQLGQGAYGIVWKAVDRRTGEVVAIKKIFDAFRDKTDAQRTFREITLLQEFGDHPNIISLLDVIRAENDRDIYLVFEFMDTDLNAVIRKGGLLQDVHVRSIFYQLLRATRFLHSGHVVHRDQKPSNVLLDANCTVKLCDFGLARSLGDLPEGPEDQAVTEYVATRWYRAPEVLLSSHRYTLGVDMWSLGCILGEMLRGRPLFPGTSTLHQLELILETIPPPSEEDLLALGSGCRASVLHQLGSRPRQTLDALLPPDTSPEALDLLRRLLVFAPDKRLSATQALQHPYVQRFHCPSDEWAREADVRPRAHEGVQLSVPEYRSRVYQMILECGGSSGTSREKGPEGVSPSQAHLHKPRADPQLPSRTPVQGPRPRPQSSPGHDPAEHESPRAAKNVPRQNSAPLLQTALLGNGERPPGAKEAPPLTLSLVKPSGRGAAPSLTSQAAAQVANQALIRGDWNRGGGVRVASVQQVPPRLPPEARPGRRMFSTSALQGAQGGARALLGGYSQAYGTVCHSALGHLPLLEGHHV
Procedure, shortened: as §1

IKKa/CHUK = target: T4, IKKa/CHUK (Homo sapiens, UniProt O15111)
T4 construct: purchased Reaction Biology Corp
T4 sequence (O15111 1-745): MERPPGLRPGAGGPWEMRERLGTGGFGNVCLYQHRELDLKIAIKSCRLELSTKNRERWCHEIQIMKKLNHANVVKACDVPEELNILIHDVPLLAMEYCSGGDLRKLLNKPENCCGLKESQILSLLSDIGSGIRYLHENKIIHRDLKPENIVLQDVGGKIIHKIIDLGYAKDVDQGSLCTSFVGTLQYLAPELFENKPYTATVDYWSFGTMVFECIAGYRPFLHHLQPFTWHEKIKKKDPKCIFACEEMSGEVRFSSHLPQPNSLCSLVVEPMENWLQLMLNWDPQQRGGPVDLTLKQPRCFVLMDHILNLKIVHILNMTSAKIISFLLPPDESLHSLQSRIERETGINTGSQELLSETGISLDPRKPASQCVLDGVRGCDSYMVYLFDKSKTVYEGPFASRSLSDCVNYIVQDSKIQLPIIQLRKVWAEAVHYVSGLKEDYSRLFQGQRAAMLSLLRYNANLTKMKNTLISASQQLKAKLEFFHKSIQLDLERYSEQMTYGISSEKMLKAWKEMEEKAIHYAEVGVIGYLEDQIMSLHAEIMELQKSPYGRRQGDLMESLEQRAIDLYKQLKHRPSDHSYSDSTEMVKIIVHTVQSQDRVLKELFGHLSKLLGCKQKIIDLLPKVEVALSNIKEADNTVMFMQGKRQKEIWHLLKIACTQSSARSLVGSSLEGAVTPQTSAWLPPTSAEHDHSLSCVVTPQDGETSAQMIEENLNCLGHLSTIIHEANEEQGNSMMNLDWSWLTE
Procedure, shortened: as §1

LOK/STK10 = target: T5, LOK/STK10 (Homo sapiens, UniProt O94804)
T5 construct: purchased Reaction Biology Corp
Procedure, shortened: as §1

VRK2 = target: T6, VRK2 (Homo sapiens, UniProt Q86Y07)
T6 construct: purchased Reaction Biology Corp
Procedure, shortened: as §1

[1] = read-out: % Enzyme Activity (relative to DMSO controls) AVG
[2] = read-out: % Enzyme Activity (relative to DMSO controls) Data 1
[3] = read-out: % Enzyme Activity (relative to DMSO controls) Data 2

T1 sequence (Q9Y6M4 whole entry): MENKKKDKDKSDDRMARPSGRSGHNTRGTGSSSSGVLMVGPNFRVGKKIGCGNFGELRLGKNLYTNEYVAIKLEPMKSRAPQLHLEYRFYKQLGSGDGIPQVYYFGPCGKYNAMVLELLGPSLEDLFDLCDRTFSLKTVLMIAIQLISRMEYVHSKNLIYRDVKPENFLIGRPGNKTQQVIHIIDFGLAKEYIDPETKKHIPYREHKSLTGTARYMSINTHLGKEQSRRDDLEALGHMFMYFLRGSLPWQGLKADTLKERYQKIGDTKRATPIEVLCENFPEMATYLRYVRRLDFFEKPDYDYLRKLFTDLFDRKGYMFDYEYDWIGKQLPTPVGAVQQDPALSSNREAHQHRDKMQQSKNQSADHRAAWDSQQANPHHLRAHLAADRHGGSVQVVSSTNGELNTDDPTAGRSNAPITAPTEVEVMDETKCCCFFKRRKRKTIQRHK
T5 sequence (O94804 whole entry): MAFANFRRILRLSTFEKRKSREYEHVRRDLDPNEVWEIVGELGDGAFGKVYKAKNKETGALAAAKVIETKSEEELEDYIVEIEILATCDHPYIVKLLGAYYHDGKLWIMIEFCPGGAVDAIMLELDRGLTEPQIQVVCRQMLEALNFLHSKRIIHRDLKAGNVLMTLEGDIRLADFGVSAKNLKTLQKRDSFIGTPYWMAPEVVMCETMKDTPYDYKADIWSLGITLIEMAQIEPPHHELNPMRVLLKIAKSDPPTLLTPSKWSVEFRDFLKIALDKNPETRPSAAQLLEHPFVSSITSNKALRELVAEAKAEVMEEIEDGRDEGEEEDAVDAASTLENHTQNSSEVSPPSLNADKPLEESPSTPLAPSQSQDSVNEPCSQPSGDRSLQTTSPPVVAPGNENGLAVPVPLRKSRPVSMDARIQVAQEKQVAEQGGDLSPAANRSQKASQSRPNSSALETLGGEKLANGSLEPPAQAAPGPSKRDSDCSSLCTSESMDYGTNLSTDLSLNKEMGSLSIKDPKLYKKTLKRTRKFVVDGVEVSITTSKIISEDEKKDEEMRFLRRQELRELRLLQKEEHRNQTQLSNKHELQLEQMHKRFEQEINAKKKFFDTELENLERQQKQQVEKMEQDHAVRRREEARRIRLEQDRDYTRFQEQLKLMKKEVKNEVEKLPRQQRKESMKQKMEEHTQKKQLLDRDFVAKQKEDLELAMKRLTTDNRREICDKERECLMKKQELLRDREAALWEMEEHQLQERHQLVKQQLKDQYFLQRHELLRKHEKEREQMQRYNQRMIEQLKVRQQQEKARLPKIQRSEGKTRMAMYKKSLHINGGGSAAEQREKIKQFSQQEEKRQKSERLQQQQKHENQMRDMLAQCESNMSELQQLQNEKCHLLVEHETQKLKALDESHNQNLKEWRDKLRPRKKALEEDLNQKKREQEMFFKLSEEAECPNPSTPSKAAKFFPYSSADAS
T6 sequence (Q86Y07 whole entry): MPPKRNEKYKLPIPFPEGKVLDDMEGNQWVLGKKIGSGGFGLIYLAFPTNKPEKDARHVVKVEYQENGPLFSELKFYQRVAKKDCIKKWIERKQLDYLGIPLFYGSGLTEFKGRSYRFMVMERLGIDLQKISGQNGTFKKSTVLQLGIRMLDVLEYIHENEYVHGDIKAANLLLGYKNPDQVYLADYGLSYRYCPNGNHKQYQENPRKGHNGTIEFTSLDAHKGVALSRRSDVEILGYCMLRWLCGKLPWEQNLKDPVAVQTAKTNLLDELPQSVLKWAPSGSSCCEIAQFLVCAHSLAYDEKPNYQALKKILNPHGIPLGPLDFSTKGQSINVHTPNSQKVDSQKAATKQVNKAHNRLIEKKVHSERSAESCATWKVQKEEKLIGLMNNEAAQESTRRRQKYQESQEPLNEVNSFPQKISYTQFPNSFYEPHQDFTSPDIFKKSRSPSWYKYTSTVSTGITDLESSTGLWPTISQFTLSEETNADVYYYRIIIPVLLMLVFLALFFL

CC(C)(C)C(=O)N1N=CC[C@H]1c1ccccc1 [GSK′963]
remaining activity at 10 µM (CK1g3; [1]): 98.4% | remaining activity at 10 µM (CK1g3; [2]): 97.8% | remaining activity at 10 µM (CK1g3; [3]): 99% | remaining activity at 10 µM (EPHB2; [1]): 105% | remaining activity at 10 µM (EPHB2; [2]): 108% | remaining activity at 10 µM (EPHB2; [3]): 102% | remaining activity at 10 µM (ERK7/MAPK15; [1]): 112% | remaining activity at 10 µM (ERK7/MAPK15; [2]): 113% | remaining activity at 10 µM (ERK7/MAPK15; [3]): 111% | remaining activity at 10 µM (IKKa/CHUK; [1]): 89.5% | remaining activity at 10 µM (IKKa/CHUK; [2]): 91.1% | remaining activity at 10 µM (IKKa/CHUK; [3]): 88% | remaining activity at 10 µM (LOK/STK10; [1]): 94% | remaining activity at 10 µM (LOK/STK10; [2]): 93.1% | remaining activity at 10 µM (LOK/STK10; [3]): 95% | remaining activity at 10 µM (VRK2; [1]): 107% | remaining activity at 10 µM (VRK2; [2]): 107% | remaining activity at 10 µM (VRK2; [3]): 108%
